Here are results for 14 compounds from PubChem BioAssay (NCI).

Among the test systems are MALME-3M melanoma; MOLT-4 leukemia; SW-620 colon; PC-3 prostate; SN12C renal; NCI-H23 lung; OVCAR-3 ovarian; SNB-19 CNS; SK-OV-3 ovarian; SF-268 CNS.
Common to all, as to test: NCI anticancer screen, dose series, 48 h

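48-hour exposure; five concentrations; linearly interpolated endpoints. GI50 is the concentration that inhibits growth by half. The concentration for full growth arrest is given as TGI.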

Turning to `C=C1CC[C@@H](C)[C@](C)(CCc2ccoc2)C/C=C\C=C/1C(=O)O`, the TGI with MALME-3M melanoma is above 100 µM; in the assay with MOLT-4 leukemia it was 95.8 µM; with SW-620 colon, above 100 µM; in the assay on PC-3 prostate it was above 100 µM; in the assay with SN12C renal it was above 100 µM; in the assay with NCI-H23 lung, above 100 µM. The TGI in the assay on OVCAR-3 ovarian is 42.9 µM; in the assay with SNB-19 CNS, above 100 µM; in the assay with SK-OV-3 ovarian, above 100 µM.

For the compound `Cc1cnc2c(c1C)C(=O)c1ccccc1C2=O`, the TGI in the assay with MOLT-4 leukemia, in the assay on SW-620 colon, in the assay with PC-3 prostate, in the assay on SN12C renal, in the assay with NCI-H23 lung and with OVCAR-3 ovarian was above 100 µM throughout. Besides, the TGI with SF-268 CNS, in the assay on SNB-19 CNS and with SK-OV-3 ovarian was above 100 µM throughout.

Consider `CC(C)(CCC(C)(C)N1OC1c1ccccc1)N1OC1c1ccccc1` (stereo not given), for which the TGI with MALME-3M melanoma, in the assay with SW-620 colon, in the assay with PC-3 prostate, in the assay with SN12C renal, in the assay on NCI-H23 lung and in the assay with SF-268 CNS was above 100 µM each time. Moreover, the TGI in the assay with SNB-19 CNS and in the assay with SK-OV-3 ovarian was above 100 µM throughout.

Consider `O=C1CCCC/C1=C\c1ccc(Cl)c(Cl)c1`, for which the TGI is 43.8 µM in the assay on MOLT-4 leukemia; 50.7 µM in the assay with SW-620 colon; 31 µM in the assay with SN12C renal; 71.3 µM with NCI-H23 lung; 59.4 µM in the assay on SF-268 CNS; 74.3 µM with SNB-19 CNS. This compound also came in with a TGI in the assay on SK-OV-3 ovarian above 100 µM.

For `CCN(CCN(CC)C(=O)Nc1ccccc1)C(=O)Nc1ccccc1`, the TGI in the assay on MALME-3M melanoma, with MOLT-4 leukemia, in the assay with SW-620 colon, with PC-3 prostate, in the assay on SN12C renal and in the assay on NCI-H23 lung was above 100 µM in each case. In addition, the TGI in the assay with SF-268 CNS, in the assay on SNB-19 CNS and in the assay with SK-OV-3 ovarian was above 100 µM throughout.

For `CCCCCCCCCCCC[N+](CCCCCCCCCCCC)=C1SCCS1`, the TGI was determined as 19.1 µM in the assay with MALME-3M melanoma; 16.6 µM in the assay with MOLT-4 leukemia; 10.1 µM in the assay on SW-620 colon; 14.6 µM with SN12C renal; 9.05 µM in the assay with NCI-H23 lung; 19.8 µM in the assay with OVCAR-3 ovarian. Moreover, the TGI is 21.5 µM in the assay with SF-268 CNS and 30.1 µM in the assay on SK-OV-3 ovarian.

As for `CCOC(=O)c1c[nH]c2ccc3c(c2c1=O)S(=O)(=O)CC3` (tested in a mixture with another compound), the TGI with MALME-3M melanoma, with MOLT-4 leukemia, with SW-620 colon, in the assay with SN12C renal, with NCI-H23 lung and in the assay with OVCAR-3 ovarian was above 100 µM each time. The TGI with SF-268 CNS, in the assay with SNB-19 CNS and in the assay on SK-OV-3 ovarian was above 100 µM in each case.

With `COc1cc(O)c2c(=O)c(OC)c(-c3ccc(OC)c(OC)c3)oc2c1`, the GI50 with MALME-3M melanoma, in the assay on PC-3 prostate, with OVCAR-3 ovarian, in the assay on SF-268 CNS and with SNB-19 CNS was above 100 µM in each case. The TGI in the assay with MALME-3M melanoma, in the assay on SW-620 colon, with PC-3 prostate, in the assay on OVCAR-3 ovarian, in the assay with SF-268 CNS and in the assay on SNB-19 CNS was above 100 µM throughout. In the assay on SK-OV-3 ovarian, the TGI was above 100 µM.

Regarding `C=C(C)[C@@H]1CC[C@]2(C(=O)OC)CC[C@]3(C)[C@H](CC[C@@H]4[C@@]5(C)CC[C@H](O)C(C)(C)[C@@H]5CC[C@]43C)[C@@H]12`, the TGI was 53 µM with MALME-3M melanoma; 44.6 µM in the assay on MOLT-4 leukemia; 38.8 µM in the assay with SW-620 colon; 34.8 µM in the assay on PC-3 prostate; 35.1 µM in the assay with SN12C renal; above 100 µM in the assay on NCI-H23 lung. The TGI amounted to 40.1 µM with OVCAR-3 ovarian, 67.3 µM in the assay on SF-268 CNS and 39.5 µM with SNB-19 CNS.

Turning to `O=C1N[C@@H]2C(=C[C@H](O)[C@@H](O)[C@H]2O)c2cc3c(c(O)c21)OCO3`, the TGI was 0.0535 µM with MALME-3M melanoma; 0.296 µM in the assay on MOLT-4 leukemia; 2.67 µM with SW-620 colon; 0.122 µM in the assay on SN12C renal; 0.129 µM in the assay on NCI-H23 lung; 0.0639 µM with OVCAR-3 ovarian. For the same compound, the TGI with SF-268 CNS was determined as 0.116 µM; in the assay on SNB-19 CNS, 0.0665 µM; with SK-OV-3 ovarian it was 0.246 µM.

On to `O=C1NC2CCCCCC2C12CCCCC2` (stereo not given), for which the TGI with MALME-3M melanoma, in the assay on MOLT-4 leukemia, with SW-620 colon, in the assay with SN12C renal, in the assay with NCI-H23 lung and in the assay on OVCAR-3 ovarian was above 100 µM in each case. The TGI with SF-268 CNS, with SNB-19 CNS and in the assay with SK-OV-3 ovarian was above 100 µM each time.

Take `COc1ccc(C2=NOC(N)(c3ccc(OC)cc3)C2)cc1` (stereo not given): the TGI in the assay on MALME-3M melanoma, in the assay with MOLT-4 leukemia, in the assay on SW-620 colon, with PC-3 prostate, in the assay on SN12C renal and in the assay with NCI-H23 lung was above 100 µM throughout. In addition, the TGI in the assay with OVCAR-3 ovarian, in the assay with SNB-19 CNS and in the assay with SK-OV-3 ovarian was above 100 µM in each case.

For `NC(Cc1ccc(S(=O)(=O)O)cc1)C(=O)NC(Cc1ccc(S(=O)(=O)O)cc1)C(=O)NC(Cc1ccc(S(=O)(=O)O)cc1)C(=O)NC(Cc1ccc(S(=O)(=O)O)cc1)C(=O)O` (stereo not given), the TGI with MALME-3M melanoma, with MOLT-4 leukemia, in the assay on SW-620 colon, in the assay with PC-3 prostate, in the assay with SN12C renal and with NCI-H23 lung was above 100 µM throughout. The TGI in the assay on OVCAR-3 ovarian, with SF-268 CNS and in the assay on SK-OV-3 ovarian was above 100 µM each time.

Regarding `COc1cccc(/N=N/C(=NNC(=O)c2ccc(C)cc2)c2ccc(N(C)C)cc2)c1`, the TGI in the assay on MOLT-4 leukemia, in the assay with SW-620 colon, in the assay on PC-3 prostate, with SN12C renal, in the assay with NCI-H23 lung and in the assay on OVCAR-3 ovarian was above 100 µM throughout. Besides, the TGI in the assay with SF-268 CNS, in the assay on SNB-19 CNS and in the assay with SK-OV-3 ovarian was above 100 µM in each case.
